Earlier results in US20200101019A1, “USE OF LIPOSOMES FOR TREATMENT OF CHRONIC VIRAL HEPATITIS B” (JIANGSU MENDEL GENE TECHNOLOGY CO., LTD, priority 2017, published 2020).

System: Hepatitis B virus (HBV)
Conditions: AASLD Guidelines for Treatment of Chronic Hepatitis B, Hepatology 2016

SMILES: Nc1ncnc2c1ncn2CCOCP(=O)(O)O [Adefovir]
- HBeAg/anti-HBe seroconversion rate after treatment with other drugs: 12%

SMILES: C=C1[C@H](CO)[C@@H](O)C[C@@H]1n1cnc2c(=O)[nH]c(N)nc21 [Entecavir]
- HBeAg/anti-HBe seroconversion rate after treatment with other drugs: 21%
